Values of other authors as cited in patent publication CN101444491A, “奥扎格雷钠微球冻干制剂及其制备方法” (HAINAN SHU ER PHARMACEUTICAL RESEARCH Co Ltd, priority 2008, dated 2009).

Tests used:
[1] = after conversion into sodium salt (JP2001316265)

Structure (SMILES) | stability in aqueous solution [1] | solubility in water
O=C(O)/C=C/c1ccc(Cn2ccnc2)cc1 [奥扎格雷钠, 钠盐] | 稳定性下降 | 
O=C(O)/C=C/c1ccc(Cn2ccnc2)cc1 [奥扎格雷] |  | 溶解度较小
